Data set [1] has as its system first instar Aedes aegypti larvae. Description: Effect of NPF polypeptides on Aedes aegypti larvae (ingestion, mortality). It counts as in vivo. The conditions noted are these: microtiter plate, peptide 2 mg/ml to 0.04 mg/ml with Brewer's yeast, mortality at 24 hour intervals for 3 to 7 days, read-out: LC50 (mM) ± SEM. The text has this:
NPF polypeptides sharing sequence homology with NPF I and NPF II of the Colorado potato beetle (Leptinotarsa decemlineata) (Spittaels, et al. Insect Biochem. Mol. Biol., 26 (4):375-382, 1996) have been identified in the American cockroach (Periplaneta americana) (Veenstra and Lambrou, Biochem. Biophys. Res. Commun., 213 (2):519-524, 1995), mosquito (Aedes aegypti) (Stanek et al., Display Presentation, Entomological Society of America Annual Meeting, Montreal, Canada, Dec. 3-6, 2000), and fruit fly (Drosophila melanogaster), and their pesticidal activity was confirmed. Synthesized polypeptides corresponding to the native polypeptides of Colorado potato beetle (SEQ ID NO. 1), mosquito (SEQ ID NOs. 5 and 7), American cockroach (SEQ ID NOs. 9 and 11), and fruit fly (SEQ ID NOs. 13 and 15) were provided to first instar Aedes aegypti larvae for ingestion. Non-amidated versions of SEQ ID NOs. 5, 7, 9, 11, 13, and 15 (SEQ ID NOs. 6, 8, 10, 12, 14, and 16, respectively), as well as other functional equivalents (SEQ ID NOs. 17-24), were also provided for ingestion.
First instar Aedes aegypti larvae were assayed in a microtiter plate in 188 μl solution containing 160 μl of water, 10 μl of 2% Brewer's yeast, and NPF polypeptides of the subject invention at concentrations of 2 mg/ml to 0.04 mg/ml (Table 2). Mortality was determined at 24 hour intervals for 3 to 7 days. Controls were run with yeast solution lacking the NPF polypeptide.

Data set [2] relates to trypsin biosynthesis in the midgut of female Aedes aegypti. Description: Trypsin biosynthesis in blood-fed female mosquitoes injected with peptide (whole mosquitos). The format is in vivo. Particulars: whole blood-fed females, injected 0.25 μl, 10^−6 M peptide, midguts assayed 30 hours later. From the text: To find out if NPF I and II affect trypsin biosynthesis in the midgut of female Aedes aegypti, […] were removed and assayed for trypsin biosynthesis (Borovsky el al., 1990 “Mosquito Oostatic Factor: A Novel Decapeptide Modulating Trypsin-Like Enzyme Biosynthesis in the Midgut” FASEB J. 4:3015-3020; Borovsky et al. 1993 “Mass Spectrometry and Characterization of Aedes aegypti Trypsin Modulating Oostatic Factor (TMOF) and its Analog” Insect Biochem. Molec. Biol. 23:703-712). Each experiment was repeated 3 times (5 females per group) and the results are expressed as % inhibition of trypsin biosynthesis±S.E.M. (FIG. 1).

No end group written: not given here. Some results are limits rather than exact numbers.

The term LC50 denotes the concentration lethal to half of the exposed cells or organisms. For “AQRSPSLRLRF-NH2 [SEQ ID NO. 15, Ala-Gln-Arg-Ser-Pro-Ser-Leu-Arg-Leu-Arg-Phe-amide]”, in data set [1], the LC50 turned out to be 1.03 ± 0.1 mM. Regarding “ARGPQLRLRF-NH2 [SEQ ID NO. 1, Ala-Arg-Gly-Pro-Gln-Leu-Arg-Leu-Arg-Phe-amide]”, the LC50 in data set [1] worked out at 0.65 ± 0.04 mM.

Take “APQLRLRF-NH2 [SEQ ID NO. 7, Ala-Pro-Gln-Leu-Arg-Leu-Arg-Phe-amide]”: the LC50 in data set [1] came to 0.8 ± 0.06 mM. Still for that read-out and setting: the figure for “ANRSPSLRLRF-NH2 [SEQ ID NO. 9, Ala-Asn-Arg-Ser-Pro-Ser-Leu-Arg-Leu-Arg-Phe-amide]” is 0.135 ± 0.06 mM. Still for that read-out and setting: the figure for “PIRSPSLRLRF-NH2 [SEQ ID NO. 13, Pro-Ile-Arg-Ser-Pro-Ser-Leu-Arg-Leu-Arg-Phe-amide]” is 0.589 ± 0.04 mM; for “PSLRLRF-NH2 [SEQ ID NO. 19, Pro-Ser-Leu-Arg-Leu-Arg-Phe-amide]” it is over 2.25 mM.

In the case of “RPPTRFRF-NH2 [SEQ ID NO. 5, Arg-Pro-Pro-Thr-Arg-Phe-Arg-Phe-amide]”, in data set [1], the LC50 worked out at 0.61 ± 0.018 mM. Same read-out and setting: the figure for “RSPSLRLRF-NH2 [SEQ ID NO. 17, Arg-Ser-Pro-Ser-Leu-Arg-Leu-Arg-Phe-amide]” is 0.82 ± 0.07 mM; for “ADRSPSLRLRF-NH2 [SEQ ID NO. 11, Ala-Asp-Arg-Ser-Pro-Ser-Leu-Arg-Leu-Arg-Phe-amide]” it is 0.65 ± 0.03 mM. On the same count and under the same terms, with “LRLRF-NH2 [SEQ ID NO. 21, Leu-Arg-Leu-Arg-Phe-amide]” the figure was over 2.8 mM. On to “Ala-Pro-Ser-Leu-Arg-Leu-Arg-Phe-amide (APSLRLRF-NH2) [NPF II, amidated neuropeptide NPF II, native to the Colorado potato beetle]”, for which the “% inhibition of trypsin biosynthesis” value in data set [2] is listed as 35%.

Values taken from patent US7714106B2, “Neuropeptides and their use for pest control” (University of Florida Research Foundation, Inc., priority 1999, dated 2010).
